Like-named read-outs stand apart in the source and are kept apart here. Where a SMILES comes first, the peptide text is derived from it.
Tests used:
SARS2 M^pro = details: cited from earlier work
SARS2 replication = details: read-out: EC50 against SARS2 replication; cited from earlier work
293T cells = details: up to the highest tested concentration (100 μM)
HCoV-NL63 M^pro = HCoV-NL63 M^pro (Human coronavirus NL63, UniProt P0C6X5); type: cell-based; details: read-out: EC50 NL63 M^pro inhibition, cellular gain-of-signal
Sequence of HCoV-NL63 M^pro (P0C6X5 2940-3242): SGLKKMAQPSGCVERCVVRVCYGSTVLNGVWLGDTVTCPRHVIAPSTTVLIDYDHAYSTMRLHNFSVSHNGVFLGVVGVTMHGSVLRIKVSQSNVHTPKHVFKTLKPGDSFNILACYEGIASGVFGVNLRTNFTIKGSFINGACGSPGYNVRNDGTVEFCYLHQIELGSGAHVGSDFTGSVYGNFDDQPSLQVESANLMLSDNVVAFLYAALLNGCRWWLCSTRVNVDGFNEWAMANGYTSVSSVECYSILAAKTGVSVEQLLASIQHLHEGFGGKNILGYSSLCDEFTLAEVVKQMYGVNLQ

O=C(NCc1cccs1)C1CN(C(=O)c2cccnc2)CCN1c1ccc(Cl)c(Cl)c1 (centres unmarked) [GC-14, reference compound]
IC50 (SARS2 M^pro; read-out: IC50 in a similar biochemical assay, ref [60]–[61]): 400 nM | EC50 (SARS2 replication): 1100 nM

CSCCC(C=O)NC(=O)C(CC(C)C)NC(=O)C(CC(C)C)NC(C)=O (stereo not drawn) [MWAC-0001889, CSCCC(NC(=O)C(CC(C)C)NC(=O)C(CC(C)C)NC(=O)C)C=O] (Ac-Leu-Leu-Met-aldehyde; configuration not given here)
toxicity in 293T cells (293T cells): no toxicity | IC50 (SARS2 M^pro; read-out: IC50 SARS2 M^pro in a biochemical assay, ref [29],[32],[39],[58],[59]): 970 nM

CC(C)C[C@H](NC(=O)OCc1ccccc1)C(=O)N[C@@H](CC1CCNC1=O)C(O)S(=O)(=O)O (some centres unmarked) [GC376]
EC50 (HCoV-NL63 M^pro): 770 nM

Source: PMC11550483 (2024)
